Reference: the supplement of paper PMC10307832

Experiments:
Assay in all cases: relative viability (nuclei count vs DMSO), 5 days (fraction); higher = more cells survive
[1] = tested on: A-427
Procedure, shortened: (§1)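 Relative viability is defined as nuclei in treated wells over nuclei in vehicle wells. Duplicate plates were run and medians reported. Lung cancer cell lines in 1536-well plates were dosed by pin tool one day after seeding, with one drug or with a fixed anchor-drug dose plus five library-drug doses (not always all listed) in √10 steps, and nuclei were counted after 5 days.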

[2] = tested on: H3255
Procedure, shortened: as §1

[3] = tested on: HARA
Procedure, shortened: as §1

[4] = tested on: HCC-15
Procedure, shortened: as §1

[5] = tested on: HCC-366
Procedure, shortened: as §1

[6] = tested on: LXF-289
Procedure, shortened: as §1

[7] = tested on: NCI-H1437
Procedure, shortened: as §1

[8] = tested on: NCI-H1755
Procedure, shortened: as §1

[9] = tested on: NCI-H1793
Procedure, shortened: as §1

[10] = tested on: NCI-H1915
Procedure, shortened: as §1

[11] = tested on: NCI-H1975
Procedure, shortened: as §1

[12] = tested on: NCI-H2009
Procedure, shortened: as §1

[13] = tested on: NCI-H2023
Procedure, shortened: as §1

[14] = tested on: NCI-H2405
Procedure, shortened: as §1

[15] = tested on: NCI-H3122
Procedure, shortened: as §1

[16] = tested on: NCI-H441
Procedure, shortened: as §1

[17] = tested on: NCI-H460
Procedure, shortened: as §1

[18] = tested on: NCI-H596
Procedure, shortened: as §1

[19] = tested on: NCI-H650
Procedure, shortened: as §1

[20] = tested on: PC-14
Procedure, shortened: as §1

[21] = tested on: PC-3 [JPC-3]
Procedure, shortened: as §1

[22] = tested on: SK-LU-1
Procedure, shortened: as §1

[23] = tested on: UMC-11
Procedure, shortened: as §1

## Cc1cnc(-c2cnc(NCCNc3ccc(C#N)cn3)nc2-c2ccc(Cl)cc2Cl)[nH]1 + Cc1nc(NC(=O)N2CCC[C@H]2C(N)=O)sc1-c1ccnc(C(C)(C)C(F)(F)F)c1 [Alpelisib] (partner 2 µM)
[1]; first compound 0.08 µM
  relative viability: 1.1
[1]; first compound 0.253 µM
  relative viability: 1.05
[1]; first compound 0.8 µM
  relative viability: 1.07
[1]; first compound 2.53 µM
  relative viability: 1.06
[2]; first compound 0.08 µM
  relative viability: 0.886
[2]; first compound 0.253 µM
  relative viability: 0.618
[2]; first compound 0.8 µM
  relative viability: 0.802
[2]; first compound 2.53 µM
  relative viability: 0.73
[3]; first compound 0.08 µM
  relative viability: 0.994
[3]; first compound 0.253 µM
  relative viability: 0.673
[3]; first compound 0.8 µM
  relative viability: 0.746
[3]; first compound 2.53 µM
  relative viability: 0.827
[4]; first compound 0.08 µM
  relative viability: 0.857
[4]; first compound 0.253 µM
  relative viability: 0.815
[4]; first compound 0.8 µM
  relative viability: 0.853
[4]; first compound 2.53 µM
  relative viability: 0.881
[5]; first compound 0.08 µM
  relative viability: 0.369
[5]; first compound 0.253 µM
  relative viability: 0.364
[5]; first compound 0.8 µM
  relative viability: 0.33
[5]; first compound 2.53 µM
  relative viability: 0.32
[6]; first compound 0.08 µM
  relative viability: 1.11
[6]; first compound 0.253 µM
  relative viability: 1
[6]; first compound 0.8 µM
  relative viability: 1.05
[6]; first compound 2.53 µM
  relative viability: 1.08
[7]; first compound 0.08 µM
  relative viability: 0.962
[7]; first compound 0.253 µM
  relative viability: 0.937
[7]; first compound 0.8 µM
  relative viability: 0.909
[7]; first compound 2.53 µM
  relative viability: 0.918
[8]; first compound 0.08 µM
  relative viability: 0.998
[8]; first compound 0.253 µM
  relative viability: 0.851
[8]; first compound 0.8 µM
  relative viability: 0.901
[8]; first compound 2.53 µM
  relative viability: 0.896
[9]; first compound 0.08 µM
  relative viability: 0.838
[9]; first compound 0.253 µM
  relative viability: 0.618
[9]; first compound 0.8 µM
  relative viability: 0.973
[9]; first compound 2.53 µM
  relative viability: 1.08
[10]; first compound 0.08 µM
  relative viability: 1.08
[10]; first compound 0.8 µM
  relative viability: 1.09
[10]; first compound 2.53 µM
  relative viability: 1.01
[11]; first compound 0.08 µM
  relative viability: 0.667
[11]; first compound 0.253 µM
  relative viability: 0.571
[11]; first compound 0.8 µM
  relative viability: 0.561
[11]; first compound 2.53 µM
  relative viability: 0.52
[12]; first compound 0.08 µM
  relative viability: 1.13
[12]; first compound 0.253 µM
  relative viability: 1.14
[12]; first compound 0.8 µM
  relative viability: 1.26
[12]; first compound 2.53 µM
  relative viability: 1.05
[13]; first compound 0.08 µM
  relative viability: 0.574
[13]; first compound 0.253 µM
  relative viability: 0.656
[13]; first compound 0.8 µM
  relative viability: 0.747
[13]; first compound 2.53 µM
  relative viability: 1.12
[14]; first compound 0.08 µM
  relative viability: 1.09
[14]; first compound 0.253 µM
  relative viability: 0.793
[14]; first compound 0.8 µM
  relative viability: 0.811
[14]; first compound 2.53 µM
  relative viability: 0.592
[15]; first compound 0.08 µM
  relative viability: 0.858
[15]; first compound 0.253 µM
  relative viability: 0.771
[15]; first compound 0.8 µM
  relative viability: 0.725
[15]; first compound 2.53 µM
  relative viability: 0.762
[16]; first compound 0.08 µM
  relative viability: 0.759
[16]; first compound 0.253 µM
  relative viability: 0.668
[16]; first compound 0.8 µM
  relative viability: 0.858
[16]; first compound 2.53 µM
  relative viability: 0.7
[17]; first compound 0.08 µM
  relative viability: 0.552
[17]; first compound 0.253 µM
  relative viability: 0.475
[17]; first compound 0.8 µM
  relative viability: 0.61
[17]; first compound 2.53 µM
  relative viability: 0.68
[18]; first compound 0.08 µM
  relative viability: 0.532
[18]; first compound 0.253 µM
  relative viability: 0.375
[18]; first compound 0.8 µM
  relative viability: 0.517
[18]; first compound 2.53 µM
  relative viability: 0.469
[19]; first compound 0.08 µM
  relative viability: 1.07
[19]; first compound 0.253 µM
  relative viability: 1.06
[19]; first compound 0.8 µM
  relative viability: 1.17
[19]; first compound 2.53 µM
  relative viability: 1.11
[20]; first compound 0.08 µM
  relative viability: 0.927
[20]; first compound 0.253 µM
  relative viability: 0.834
[20]; first compound 0.8 µM
  relative viability: 0.924
[20]; first compound 2.53 µM
  relative viability: 0.802
[21]; first compound 0.08 µM
  relative viability: 1
[21]; first compound 0.253 µM
  relative viability: 0.934
[21]; first compound 0.8 µM
  relative viability: 1.02
[21]; first compound 2.53 µM
  relative viability: 1.01
[22]; first compound 0.08 µM
  relative viability: 1.09
[22]; first compound 0.253 µM
  relative viability: 0.931
[22]; first compound 0.8 µM
  relative viability: 1.28
[22]; first compound 2.53 µM
  relative viability: 1.18
[23]; first compound 0.08 µM
  relative viability: 0.844
[23]; first compound 0.253 µM
  relative viability: 0.903
[23]; first compound 0.8 µM
  relative viability: 1.02
[23]; first compound 2.53 µM
  relative viability: 0.908

## Cc1cnc(-c2cnc(NCCNc3ccc(C#N)cn3)nc2-c2ccc(Cl)cc2Cl)[nH]1 + Cc1nc(Nc2ncc(C(=O)Nc3c(C)cccc3Cl)s2)cc(N2CCN(CCO)CC2)n1 [Dasatinib] (partner 0.075 µM)
[1]; first compound 0.08 µM
  relative viability: 0.747
[1]; first compound 0.253 µM
  relative viability: 0.589
[1]; first compound 0.8 µM
  relative viability: 0.738
[1]; first compound 2.53 µM
  relative viability: 0.682
[2]; first compound 0.08 µM
  relative viability: 0.466
[2]; first compound 0.253 µM
  relative viability: 0.445
[2]; first compound 2.53 µM
  relative viability: 0.388
[3]; first compound 0.08 µM
  relative viability: 0.223
[3]; first compound 0.253 µM
  relative viability: 0.259
[3]; first compound 0.8 µM
  relative viability: 0.343
[3]; first compound 2.53 µM
  relative viability: 0.244
[4]; first compound 0.08 µM
  relative viability: 0.687
[4]; first compound 0.253 µM
  relative viability: 0.509
[4]; first compound 0.8 µM
  relative viability: 0.598
[4]; first compound 2.53 µM
  relative viability: 0.625
[5]; first compound 0.08 µM
  relative viability: 0.67
[5]; first compound 0.253 µM
  relative viability: 0.545
[5]; first compound 0.8 µM
  relative viability: 0.618
[5]; first compound 2.53 µM
  relative viability: 0.595
[6]; first compound 0.08 µM
  relative viability: 0.249
[6]; first compound 0.253 µM
  relative viability: 0.204
[6]; first compound 0.8 µM
  relative viability: 0.189
[6]; first compound 2.53 µM
  relative viability: 0.139
[7]; first compound 0.08 µM
  relative viability: 0.425
[7]; first compound 0.253 µM
  relative viability: 0.369
[7]; first compound 0.8 µM
  relative viability: 0.309
[7]; first compound 2.53 µM
  relative viability: 0.278
[8]; first compound 0.08 µM
  relative viability: 0.435
[8]; first compound 0.253 µM
  relative viability: 0.427
[8]; first compound 0.8 µM
  relative viability: 0.398
[8]; first compound 2.53 µM
  relative viability: 0.399
[9]; first compound 0.08 µM
  relative viability: 0.384
[9]; first compound 0.253 µM
  relative viability: 0.365
[9]; first compound 0.8 µM
  relative viability: 0.411
[9]; first compound 2.53 µM
  relative viability: 0.468
[10]; first compound 0.08 µM
  relative viability: 0.339
[10]; first compound 0.253 µM
  relative viability: 0.294
[10]; first compound 0.8 µM
  relative viability: 0.342
[10]; first compound 2.53 µM
  relative viability: 0.311
[11]; first compound 0.08 µM
  relative viability: 0.427
[11]; first compound 0.253 µM
  relative viability: 0.336
[11]; first compound 0.8 µM
  relative viability: 0.282
[11]; first compound 2.53 µM
  relative viability: 0.241
[12]; first compound 0.08 µM
  relative viability: 0.322
[12]; first compound 0.253 µM
  relative viability: 0.284
[12]; first compound 0.8 µM
  relative viability: 0.282
[12]; first compound 2.53 µM
  relative viability: 0.231
[13]; first compound 0.08 µM
  relative viability: 0.811
[13]; first compound 0.253 µM
  relative viability: 0.532
[13]; first compound 0.8 µM
  relative viability: 0.599
[13]; first compound 2.53 µM
  relative viability: 0.636
[14]; first compound 0.08 µM
  relative viability: 0.215
[14]; first compound 0.253 µM
  relative viability: 0.223
[14]; first compound 0.8 µM
  relative viability: 0.223
[14]; first compound 2.53 µM
  relative viability: 0.195
[15]; first compound 0.08 µM
  relative viability: 0.859
[15]; first compound 0.8 µM
  relative viability: 0.714
[15]; first compound 2.53 µM
  relative viability: 0.528
[16]; first compound 0.08 µM
  relative viability: 0.672
[16]; first compound 0.253 µM
  relative viability: 0.578
[16]; first compound 0.8 µM
  relative viability: 0.385
[16]; first compound 2.53 µM
  relative viability: 0.403
[17]; first compound 0.08 µM
  relative viability: 0.543
[17]; first compound 0.253 µM
  relative viability: 0.404
[17]; first compound 0.8 µM
  relative viability: 0.557
[17]; first compound 2.53 µM
  relative viability: 0.454
[18]; first compound 0.08 µM
  relative viability: 0.601
[18]; first compound 0.253 µM
  relative viability: 0.656
[18]; first compound 0.8 µM
  relative viability: 0.624
[18]; first compound 2.53 µM
  relative viability: 0.607
[19]; first compound 0.08 µM
  relative viability: 0.497
[19]; first compound 0.253 µM
  relative viability: 0.462
[19]; first compound 0.8 µM
  relative viability: 0.511
[19]; first compound 2.53 µM
  relative viability: 0.495
[20]; first compound 0.08 µM
  relative viability: 0.325
[20]; first compound 0.253 µM
  relative viability: 0.226
[20]; first compound 2.53 µM
  relative viability: 0.172
[21]; first compound 0.08 µM
  relative viability: 0.926
[21]; first compound 0.253 µM
  relative viability: 0.88
[21]; first compound 0.8 µM
  relative viability: 0.929
[21]; first compound 2.53 µM
  relative viability: 1
[22]; first compound 0.08 µM
  relative viability: 0.185
[22]; first compound 0.253 µM
  relative viability: 0.185
[22]; first compound 0.8 µM
  relative viability: 0.18
[22]; first compound 2.53 µM
  relative viability: 0.226
[23]; first compound 0.08 µM
  relative viability: 0.515
[23]; first compound 0.253 µM
  relative viability: 0.542
[23]; first compound 0.8 µM
  relative viability: 0.498
[23]; first compound 2.53 µM
  relative viability: 0.527
